Our source for the IC50 and Ki values is patent US11702418B2, “SOS1 inhibitors” (priority 2019, dated 2023).

The structures appear in SMILES notation. pIC50, pKi: −log10 of the molar value. Structures can show the parent of a compound that is named as a salt. Where two headings read alike, the source gives them in different places.

The subject of one experiment is pERK in MKN1 cells. Briefly: cells. Format: cell-based.
Experiment [1] concerns the target recombinant human SOS1 polypeptide (amino acids 560-1049) (Homo sapiens (Human), UniProt Q07889). Briefly: biochemical. The format is binding. As to conditions: read-out: Ki, Inhibition of Labeled Tracer Binding to SOS1.
The mark [2] stands for this setting: Homo sapiens, MKN-1, pERK inhibition, In-Cell Western, MKN1 or H358 cells (Table 24 does not say which), 0.5-1 hour incubation, read-out: IC50.
Setting [3] is: HTRF displacement, Cy5 labelled tracer, Morrison equation for competitive binding.

Chain of recombinant human SOS1 polypeptide (amino acids 560-1049) (Q07889 560-1049): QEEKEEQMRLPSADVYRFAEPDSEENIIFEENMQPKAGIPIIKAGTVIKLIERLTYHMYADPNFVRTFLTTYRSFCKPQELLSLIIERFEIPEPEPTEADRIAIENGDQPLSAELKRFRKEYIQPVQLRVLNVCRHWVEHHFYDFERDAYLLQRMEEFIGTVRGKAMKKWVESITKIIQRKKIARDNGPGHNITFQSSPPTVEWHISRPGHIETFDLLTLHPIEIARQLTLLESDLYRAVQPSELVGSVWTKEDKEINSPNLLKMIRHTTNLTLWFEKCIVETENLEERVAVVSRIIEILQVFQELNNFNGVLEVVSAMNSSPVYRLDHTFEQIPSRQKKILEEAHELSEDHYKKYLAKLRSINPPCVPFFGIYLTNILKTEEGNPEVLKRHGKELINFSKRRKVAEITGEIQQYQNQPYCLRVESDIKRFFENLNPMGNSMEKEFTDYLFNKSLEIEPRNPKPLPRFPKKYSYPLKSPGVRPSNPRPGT

Take `Cc1c(C#N)cccc1[C@@H](C)Nc1nnc(C)c2ccc(N3CC4(CCN(C)C4=O)C3)cc12` [Example 10-69, (R)-2-methyl-3-(1-((4-methyl-7-(6-methyl-5-oxo-2,6-diazaspiro[3.4]octan-2-yl)phthalazin-1-yl)amino)ethyl)benzonitrile]: the pIC50 – broadly, −log10 of the IC50, conventionally taken in molar units – in the experiment with pERK in MKN1 cells (setting [2]) is 7.41. Besides, in experiment [1] (setting [3]), the pKi (in general, −log10 of the Ki, conventionally taken in molar units) was 8.51.

As for `Cc1c(C#N)cccc1[C@@H](C)Nc1nnc(C)c2cnc(N3CCN(C(=O)C4CC4)CC3)cc12` [Example 11-6, (R)-3-(1-((7-(4-(cyclopropanecarbonyl)piperazin-1-yl)-4-methylpyrido[3,4-d]pyridazin-1-yl)amino)ethyl)-2-methylbenzonitrile], the pIC50 in the experiment with pERK in MKN1 cells (setting [2]) is 7.26. In addition, the pKi in experiment [1] (setting [3]) is 9.38.

In the case of `Cc1c(C#N)cccc1[C@@H](C)Nc1nnc(C)c2cnc(N3CC4(COCCN4C)C3)cc12` [Example 12-72], the pIC50 in the experiment with pERK in MKN1 cells (setting [2]) was 7.72. For the same compound, the pKi in experiment [1] (setting [3]) is 8.36.

As to `Cc1c([C@@H](C)Nc2nnc(C)c3ccc(OC4COC4)cc23)cccc1C(F)(F)F` [Example 13-2, (R)-4-methyl-N-(1-(2-methyl-3-(trifluoromethyl)phenyl)ethyl)-7-(oxetan-3-yloxy)phthalazin-1-amine], the pIC50 in the experiment with pERK in MKN1 cells (setting [2]) is 5.68. Also, in experiment [1] (setting [3]), the pKi is 6.72.

`Cc1nnc(N[C@H](C)c2cccc(F)c2Cl)c2cc(N3CC(C)(O)C3)ncc12` [Example 12-80]: in the experiment with pERK in MKN1 cells (setting [2]), the pIC50 is 6.53. Besides, the pKi in experiment [1] (setting [3]) is 7.43.

On to `Cc1c(C#N)cccc1[C@@H](C)Nc1nnc(C)c2ccc(N3CC4(CCN(C)C4)C3)cc12` [Example 10-73, (R)-2-methyl-3-(1-((4-methyl-7-(6-methyl-2,6-diazaspiro[3.4]octan-2-yl)phthalazin-1-yl)amino)ethyl)benzonitrile formate salt], for which the pIC50 in the experiment with pERK in MKN1 cells (Homo sapiens, MKN-1) is 7.31. Further, the pKi in experiment [1] is 9.20.

Turning to `Cc1c(C#N)cccc1[C@@H](C)Nc1nnc(C)c2ccc(N3CCOCC3)cc12` [Example 10-51, (R)-2-methyl-3-(1-((4-methyl-7-morpholinophthalazin-1-yl)amino)ethyl)benzonitrile], in the experiment with pERK in MKN1 cells (setting [2]), the pIC50 was 7.41. Further, in experiment [1] (setting [3]), the pKi is 8.85.

Consider `Cc1c(C#N)cc(F)cc1[C@@H](C)Nc1nnc(C)c2cnc(N3C[C@H]4C[C@@H]3CO4)cc12` [Example 12-105], for which the pIC50 in the experiment with pERK in MKN1 cells (setting [2]) was 7.01. For the same compound, the pKi in experiment [1] (setting [3]) was 7.96.

Take `Cc1c([C@@H](C)Nc2nnc(C)c3ccc(N4CCC5(CCNC5=O)CC4)cc23)cccc1C(F)(F)F` [Example 10-38, (R)-8-(1-methyl-4-((1-(2-methyl-3-(trifluoromethyl)phenyl)ethyl)amino)phthalazin-6-yl)-2,8-diazaspiro[4.5]decan-1-one]: the pIC50 in the experiment with pERK in MKN1 cells (setting [2]) is 7.54. In experiment [1] (setting [3]), the pKi is 9.15.

Consider `Cc1nnc(N[C@H](C)c2cccc(C(F)(F)F)c2F)c2cc(N3CCNCC3)ncc12` [Example 12-65], for which the pIC50 in the experiment on pERK in MKN1 cells (setting [2]) was 7.80. Besides, in experiment [1] (setting [3]), the pKi is 9.14.

In the experiment on pERK in MKN1 cells (Homo sapiens, MKN-1, pERK inhibition, In-Cell Western, MKN1 or H358 cells (Table 24 does not say which), 0.5-1 hour incubation), `Cc1c([C@@H](C)Nc2nnc(C)c3cc(F)c(N4CCNCC4)cc23)cccc1C(F)(F)F` [Example 18-1, (R)-6-fluoro-4-methyl-N-(1-(2-methyl-3-(trifluoromethyl)phenyl)ethyl)-7-(piperazin-1-yl)phthalazin-1-amine] showed a pIC50 of 6.89. Also, in experiment [1], the pKi is 9.01.

With `Cc1cn2c(n1)C(C)N(c1ccc3cnnc(N[C@H](C)c4cccc(C(F)(F)F)c4C)c3c1)CC2` (stereo partly drawn) [Example 1-44, 7-(2,8-dimethyl-5,6-dihydroimidazo[1,2-a]pyrazin-7(8H)-yl)-N-((R)-1-(2-methyl-3-(trifluoromethyl)phenyl)ethyl)phthalazin-1-amine], the pIC50 in the experiment on pERK in MKN1 cells (setting [2]) is 6.63. Also, the pKi in experiment [1] (setting [3]) is 9.38.

In the experiment with pERK in MKN1 cells (Homo sapiens, MKN-1), `Cc1nnc(N[C@H](C)c2ccc(F)cc2Cl)c2cc(N3CCOCC3)ccc12` [Example 10-59, (R)-N-(1-(2-chloro-4-fluorophenyl)ethyl)-4-methyl-7-morpholinophthalazin-1-amine Hydrochloride salt] gave a pIC50 of 6.24. Moreover, the pKi in experiment [1] is 7.51.

For `Cc1c(C#N)cccc1[C@@H](C)Nc1nnc(C)c2ccc(N3CCN4CCCC[C@@H]4C3)cc12` [Example 10-82, 2-methyl-3-((R)-1-((4-methyl-7-((R)-octahydro-2H-pyrido[1,2-a]pyrazin-2-yl)phthalazin-1-yl)amino)ethyl)benzonitrile Hydrochloride salt], the pIC50 in the experiment with pERK in MKN1 cells (Homo sapiens, MKN-1) is 7.28. Further, the pKi in experiment [1] was 9.07.

For the compound `Cc1c([C@@H](C)Nc2nnc(C)c3ccc(N4CCNCC(F)C4)cc23)cccc1C(F)(F)F` (stereo partly drawn) [Example 10-22, 7-(6-fluoro-1,4-diazepan-1-yl)-4-methyl-N-((R)-1-(2-methyl-3-(trifluoromethyl)phenyl)ethyl)phthalazin-1-amine], the pIC50 in the experiment with pERK in MKN1 cells (setting [2]) was 7.42. Moreover, in experiment [1] (setting [3]), the pKi is 9.35.

For `Cc1nnc(N[C@H](C)c2ccc(F)cc2F)c2cc(N3CCN4CCOC[C@@H]4C3)ncc12` [Example 12-48], the pIC50 with pERK in MKN1 cells (setting [2]) was 6.94. In addition, the pKi in experiment [1] (setting [3]) was 7.77.

Regarding `Cc1c([C@@H](C)Nc2nnc(C)c3ccc(N4CCC5(CCCN5)CC4)cc23)cccc1C(F)(F)F` [Example 10-18, (R)-4-methyl-N-(1-(2-methyl-3-(trifluoromethyl)phenyl)ethyl)-7-(1,8-diazaspiro[4.5]decan-8-yl)phthalazin-1-amine], the pIC50 in the experiment on pERK in MKN1 cells (pERK inhibition, In-Cell Western, MKN1 or H358 cells (Table 24 does not say which), 0.5-1 hour incubation, read-out: IC50) was 6.54. The pKi in experiment [1] (setting [3]) was 8.85.

In the experiment with pERK in MKN1 cells (Homo sapiens, MKN-1), `Cc1c([C@@H](C)Nc2nnc(C)c3ccc(N4CCC(C)(N(C)C)CC4)cc23)cccc1C(F)(F)F` [Example 10-42, (R)-7-(4-(dimethylamino)-4-methylpiperidin-1-yl)-4-methyl-N-(1-(2-methyl-3-(trifluoromethyl)phenyl)ethyl)phthalazin-1-amine hydrochloride salt] showed a pIC50 of 7.37. Besides, the pKi in experiment [1] was 9.51.

For the compound `Cc1c(C#N)cccc1[C@@H](C)Nc1nnc(C)c2ccc(N3CC(C)(O)C3)cc12` [Example 10-58, (R)-3-(1-((7-(3-hydroxy-3-methylazetidin-1-yl)-4-methylphthalazin-1-yl)amino)ethyl)-2-methylbenzonitrile], the pIC50 in the experiment with pERK in MKN1 cells (setting [2]) was 7.28. In addition, the pKi in experiment [1] (setting [3]) was 8.24.

Turning to `Cc1c(C#N)cccc1[C@@H](C)Nc1nnc(C)c2c(F)cc(N3CC(C)(O)C3)cc12` [Example 21-10, (R)-3-(1-((5-fluoro-7-(3-hydroxy-3-methylazetidin-1-yl)-4-methylphthalazin-1-yl)amino)ethyl)-2-methylbenzonitrile], in the experiment on pERK in MKN1 cells (setting [2]), the pIC50 is 7.24. Moreover, in experiment [1] (setting [3]), the pKi is 8.24.

As for `Cc1c(C#N)cccc1[C@@H](C)Nc1nnc(C)c2cnc(N(C)C)cc12` [Example 12-45], the negative logarithm of the IC50 (pIC50) in the experiment on pERK in MKN1 cells (setting [2]) was 6.60. For the same compound, the pKi in experiment [1] (setting [3]) is 8.42.

`Cc1nnc(N[C@H](C)c2cccc(F)c2F)c2cc(N3CC(C)(O)C3)ncc12` [Example 12-56]: in the experiment on pERK in MKN1 cells (setting [2]), the pIC50 is 6.52. Moreover, in experiment [1] (setting [3]), the negative logarithm of the Ki (pKi) was 7.51.

For `Cc1c([C@@H](C)Nc2nnc(CN(C)C)c3cnc(N4C[C@H]5C[C@@H]4CO5)cc23)cccc1C(F)(F)F` [Example 14-6, 7-((1R,4R)-2-oxa-5-azabicyclo[2.2.1]heptan-5-yl)-4-((dimethylamino)methyl)-N-((R)-1-(2-methyl-3-(trifluoromethyl)phenyl)ethyl)pyrido[3,4-d]pyridazin-1-amine], the pIC50 with pERK in MKN1 cells (setting [2]) was 6.85. For the same compound, in experiment [1] (setting [3]), the pKi is 8.59.

As to `Cc1c(C#N)cccc1[C@@H](C)Nc1nnc(C)c2ccc(N3CCNCC3)cc12` [Example 10-55, (R)-2-methyl-3-(1-((4-methyl-7-(piperazin-1-yl)phthalazin-1-yl)amino)ethyl)benzonitrile Formate salt], the pIC50 with pERK in MKN1 cells (Homo sapiens, MKN-1) is 7.12. For the same compound, the pKi in experiment [1] was 9.12.

`Cc1c([C@@H](C)Nc2nnc(C)c3ccc(OC[C@H]4CCCN4)cc23)cccc1C(F)(F)F` [Example 7-7, 4-methyl-N-((R)-1-(2-methyl-3-(trifluoromethyl)phenyl)ethyl)-7-(((R)-pyrrolidin-2-yl)methoxy)phthalazin-1-amine hydrochloride salt] gave a pIC50 in the experiment with pERK in MKN1 cells (Homo sapiens, MKN-1) of 6.94. The pKi in experiment [1] was 9.04.

Consider `Cc1c([C@@H](C)Nc2nnc(C)c3ccc(O[C@H]4CCOC4)cc23)cc(N)cc1C(F)(F)F` [Example 15-3, N-((R)-1-(5-amino-2-methyl-3-(trifluoromethyl)phenyl)ethyl)-4-methyl-7-(((S)-tetrahydrofuran-3-yl)oxy)phthalazin-1-amine], for which the pIC50 in the experiment on pERK in MKN1 cells (setting [2]) was 7.47. Moreover, in experiment [1] (setting [3]), the pKi was 9.03.

Compound `Cc1c(C#N)cccc1[C@@H](C)Nc1nnc(C)c2ccc(N3C[C@H]4C[C@@H]3CO4)cc12` [Example 10-54, 3-((R)-1-((7-((1R,4R)-2-oxa-5-azabicyclo[2.2.1]heptan-5-yl)-4-methylphthalazin-1-yl)amino)ethyl)-2-methylbenzonitrile Formate salt] gave a pIC50 in the experiment with pERK in MKN1 cells (Homo sapiens, MKN-1) of 7.32. Also, in experiment [1], the pKi is 8.87.

As for `Cc1c(C#N)cc(F)cc1[C@@H](C)Nc1nnc(C)c2cnc(N3CCC(C)(N(C)C)CC3)cc12` [Example 12-104], the pIC50 in the experiment with pERK in MKN1 cells (setting [2]) was 7.04. Moreover, the pKi in experiment [1] (setting [3]) was 8.21.

`Cc1c([C@@H](C)Nc2nnc(C)c3ccc(N4CCC5(CCCN5C)CC4)cc23)cccc1C(F)(F)F` [Example 10-19, (R)-4-methyl-N-(1-(2-methyl-3-(trifluoromethyl)phenyl)ethyl)-7-(1-methyl-1,8-diazaspiro[4.5]decan-8-yl)phthalazin-1-amine]: the pIC50 in the experiment on pERK in MKN1 cells (setting [2]) is 7.16. Further, the pKi in experiment [1] (setting [3]) is 9.55.

As to `Cc1c([C@@H](C)Nc2nncc3ccc(OC4CCN5CCCC5C4)cc23)cccc1C(F)(F)F` (stereo partly drawn) [Example 2-12, N-((R)-1-(2-methyl-3-(trifluoromethyl)phenyl)ethyl)-7-((octahydroindolizin-7-yl)oxy)phthalazin-1-amine], in the experiment on pERK in MKN1 cells (setting [2]), the pIC50 was 6.52. Also, in experiment [1] (setting [3]), the pKi was 8.24.
